Data as given in US20210137117A1, “HERBICIDAL MIXTURES” (Bayer Aktiengesellschaft, priority 2017, published 2021).

Tests used:
Experiment in all cases: Pre-emergence action against weeds (greenhouse)
Assay type in all cases: in vivo
[1] = test system: ALOMY—sensitive (Alopecurus myosuroides); settings: for Herbicidal action ALOMY sensitive: pre-emergence
Excerpt: (§1) Depending on the trial conditions, the soil of the standard field soil is sterile or not sterile.
(§2) The amount of water used for spray application was 300l/ha.
ALOMY—sensitive (Alopecurus myosuroides) sensitive to customary herbicidally active compounds.
(§3) Insofar as herbicidal effects of the compositions according to the invention compared to mixtures of the prior art or compared to components applied individually against economically important mono- and dicotyledonous harmful plants were the centre of attention, the synergistic herbicidal activities were calculated using Colby's formula (cf. S. R. Colby; Weeds 15 (1967), 20-22): […]

[2] = test system: LOLRI—resistant (Lolium rigidum); settings: for Herbicidal action LOLRI resistant: pre-emergence
Excerpt: as §1, §2
LOLRI—resistant (Lolium rigidum) resistant to herbicidally active compounds of the HRAC groups A and B; population mixture of field origin having increased metabolic resistance (IMR) and some target site resistance (TSR).
as §3

[3] = test system: TRZAS (Triticum aestivum); settings: for Herbicidal action (crop damage) TRZAS: pre-emergence
Excerpt: as §1, §2
TRZAS (Triticum aestivum)—Wheat, spring
as §3

[4] = test system: LOLRI—sensitive (Lolium rigidum); settings: for Herbicidal action LOLRI sensitive: pre-emergence
Excerpt: as §1, §2
LOLRI—sensitive (Lolium rigidum) sensitive to customary herbicidally active compounds.
as §3

BROST (Bromus sterilis) = settings: for Herbicidal action BROST: pre-emergence
Excerpt: as §1, §2
BROST (Bromus sterilis)—Bromegrass, barren
as §3

[5] = test system: SORHA (Sorghum halepense); settings: for Herbicidal action SORHA: pre-emergence
Excerpt: as §1, §2
SORHA (Sorghum halepense)—Johnsongrass
as §3

[6] = test system: ALOMY—resistant (Alopecurus myosuroides); settings: for Herbicidal action ALOMY resistant: pre-emergence
Excerpt: as §1, §2
ALOMY—resistant (Alopecurus myosuroides) resistant to herbicidally active compounds of the HRAC groups A and B; population mixture of field origin having increased metabolic resistance (IMR) and some target site resistance (TSR).
as §3

AVEFA (Avenafatua) = settings: for Herbicidal action AVEFA: pre-emergence
Excerpt: as §1, §2
AVEFA (Avenafatua)—Wild oat
as §3

CENCY (Centaurea cyanus) = settings: for Herbicidal action CENCY: pre-emergence
Excerpt: as §1, §2
CENCY (Centaurea cyanus)—Cornflower
as §3

BRSNW (Brassica napus) = settings: for Herbicidal action BRSNW: pre-emergence
Excerpt: as §1, §2
BRSNW (Brassica napus)—Rape, winter
as §3

[7] = test system: VERHE (Veronica hederaefolia); settings: for Herbicidal action VERHE: pre-emergence
Excerpt: as §1, §2
VERHE (Veronica hederaefolia)—Speedwell, iveleaf
as §3

HORVS (Hordeum vulgare) = settings: for Herbicidal action (crop damage) HORVS: pre-emergence
Excerpt: as §1, §2
HORVS (Hordeum vulgare)—Barley, spring
as §3

EMEAU (Emex australis) = settings: for Herbicidal action EMEAU: pre-emergence
Excerpt: as §1, §2
EMEAU (Emex australis)—Cathead
as §3

[8] = test system: RAPRA (Raphanus raphanistrum); settings: for Herbicidal action RAPRA: pre-emergence
Excerpt: as §1, §2
RAPRA (Raphanus raphanistrum)—Charlock, jointed
as §3

CCOC(=O)C1=NN(c2ccc(Cl)cc2Cl)C(C)(C(=O)OCC)C1 (stereo not drawn) [Mefenpyr, ethyl 1-(2,4-dichlorophenyl)-5-(ethoxycarbonyl)-5-methyl-2-pyrazoline-3-carboxylate]
herbicidal action ([1]; 300 g AS/ha): 0%
Herbicidal action ALOMY sensitive ([1]; dose 10 g AS/ha): 0
Herbicidal action ALOMY sensitive ([1]; dose 100 g AS/ha): 0
herbicidal action ([2]; 300 g AS/ha): 0%
Herbicidal action LOLRI resistant ([2]; dose 10 g AS/ha): 0
Herbicidal action LOLRI resistant ([2]; dose 100 g AS/ha): 0
herbicidal action ([3]; 300 g AS/ha): 0%
Herbicidal action (crop damage) TRZAS ([3]; dose 10 g AS/ha): 0
Herbicidal action (crop damage) TRZAS ([3]; dose 100 g AS/ha): 0
herbicidal action ([4]; 300 g AS/ha): 0%
Herbicidal action LOLRI sensitive ([4]; dose 10 g AS/ha): 0
Herbicidal action LOLRI sensitive ([4]; dose 100 g AS/ha): 0
herbicidal action (BROST (Bromus sterilis); 300 g AS/ha): 0%
Herbicidal action BROST (BROST (Bromus sterilis); dose 10 g AS/ha): 0
Herbicidal action BROST (BROST (Bromus sterilis); dose 100 g AS/ha): 0
herbicidal action ([5]; 300 g AS/ha): 0%
Herbicidal action SORHA ([5]; dose 10 g AS/ha): 0
Herbicidal action SORHA ([5]; dose 100 g AS/ha): 0
herbicidal action ([6]; 300 g AS/ha): 0%
Herbicidal action ALOMY resistant ([6]; dose 10 g AS/ha): 0
Herbicidal action ALOMY resistant ([6]; dose 100 g AS/ha): 0
herbicidal action (AVEFA (Avenafatua); 300 g AS/ha): 0%
Herbicidal action AVEFA (AVEFA (Avenafatua); dose 10 g AS/ha): 0
Herbicidal action AVEFA (AVEFA (Avenafatua); dose 100 g AS/ha): 0
herbicidal action (CENCY (Centaurea cyanus); 300 g AS/ha): 0%
Herbicidal action CENCY (CENCY (Centaurea cyanus); dose 10 g AS/ha): 0
Herbicidal action CENCY (CENCY (Centaurea cyanus); dose 100 g AS/ha): 0
herbicidal action (BRSNW (Brassica napus); 300 g AS/ha): 0%
Herbicidal action BRSNW (BRSNW (Brassica napus); dose 10 g AS/ha): 0
Herbicidal action BRSNW (BRSNW (Brassica napus); dose 100 g AS/ha): 0
herbicidal action ([7]; 300 g AS/ha): 0%
Herbicidal action VERHE ([7]; dose 10 g AS/ha): 0
Herbicidal action VERHE ([7]; dose 100 g AS/ha): 0
herbicidal action (HORVS (Hordeum vulgare); 300 g AS/ha): 0%
Herbicidal action (crop damage) HORVS (HORVS (Hordeum vulgare); dose 10 g AS/ha): 0
Herbicidal action (crop damage) HORVS (HORVS (Hordeum vulgare); dose 100 g AS/ha): 0
herbicidal action (EMEAU (Emex australis); 300 g AS/ha): 0%
Herbicidal action EMEAU (EMEAU (Emex australis); dose 10 g AS/ha): 0
Herbicidal action EMEAU (EMEAU (Emex australis); dose 100 g AS/ha): 0
herbicidal action ([8]; 300 g AS/ha): 0%
Herbicidal action RAPRA ([8]; dose 10 g AS/ha): 0
Herbicidal action RAPRA ([8]; dose 100 g AS/ha): 0
